In this assay the target is T1, KRAS G12C 1-169, his-tagged protein, GDP-loaded (Homo sapiens, UniProt P01116, G12C).
T1 construct: KRAS G12C 1-169, his-tagged protein, GDP-loaded
Put plainly: Biochemical assay: covalent binding (modification %) to KRAS G12C by mass spectrometry. The conditions noted are these: 2 hour incubation period. As to the method:
Test compounds were prepared as 10 mM stock solutions in DMSO (Fisher cat# BP-231-100). KRAS G12C 1-169, his-tagged protein, GDP-loaded was diluted to 2 μM or 0.5 μM in buffer (20 mM Hepes, 150 mM NaCl, 1 mM MgCl2). Compounds were tested for activity as follows:
Compounds were diluted to 50× final test concentration in DMSO in 96-well storage plates. Compound stock solutions were vortexed before use and observed carefully for any sign of precipitation. Dilutions were as follow: • For 100 μM final compound concentration, compounds were diluted to 5000 μM (5 μL 10 mM compound stock+5 μL DMSO and mixed well by pipetting. • For 30 μM final compound concentration, compounds were diluted to 1500 μM (3 μL 10 mM compound stock+17 μL DMSO) and mixed well by pipetting. • For 10 μM final compound concentration, compounds were diluted to 500 μM (2 μL 10 mM compound stock+38 μL DMSO) and mixed well by pipetting. 49 μL of the stock protein solution was added to each well of a 96-well PCR plate (Fisher cat#1423027). 1 μl of the diluted 50× compounds were added to appropriate wells in the PCR plate using 12-channel pipettor. Reactions were mixed carefully and thoroughly by pipetting up/down with a 200 μL multi-channel pipettor. The plate was sealed well with aluminum plate seal, and stored in drawer at room temperature for 10 minutes, 30 minutes, 2 hours or 24 hours. 5 μL of 2% formic acid (Fisher cat# A117) in de-ionized H2O was then added to each well followed by mixing with a pipette. The plate was then resealed with aluminum seal and stored on dry ice until analyzed as described below.
The above described assays were analyzed by mass spectrometry according to one of the following two procedures:
The MS instrument is set to positive polarity, 2 GHz resolution, and low mass (1700) mode and allowed to equilibrate for 30 minutes. The instrument is then calibrated, switched to acquisition mode and the appropriate method loaded.
After another 30 minute equilibration time, a blank batch (i.e., buffer) is run to ensure equipment is operating properly. The samples are thawed at 37° C. for 10 minutes, briefly centrifuged, and transfer to the bench top. Wells A1 and H12 are spiked with 1 μL 500 μM internal standard peptide, and the plates centrifuged at 2000×g for 5 minutes. The method is then run and masses of each individual well recorded.
The masses (for which integration data is desired) for each well are pasted into the platemap and exported from the analysis. Masses for the internal standards are exported as well. The data at 50 ppm is extracted for the +19 charge state, and identity of well A1 is assigned using the internal standard spike and integrated. Peak data is exported as a TOF list and the above steps are repeated individually, for the +20, 21, 22, 23, 24, and 25 charge states.
The masses and peak intensities of KRAS G12C protein species were measured using a Dionex RSLCnano system (Thermo Scientific) connected to a Q Exactive Plus mass spectrometer (Thermo Scientific).
[…] of sample was each loaded onto a Aeris™ 3.6 μm WIDEPORE C4 200 Å, LC Column 50×2.1 mm column maintained at 40° C. at a flow rate of 600 μL/min with 20% Solvent A (0.1% formic acid in H2O) and 80% Solvent B (0.1% formic acid in acetonitrile). The liquid chromatography conditions were 20% solvent B for 1 minute, 20% to 60% solvent B for 1.5 minutes, 60% to 90% solvent for 0.5 minute, 90% solvent B for 0.2 minute, 90% to 20% solvent B for 0.2 minute, and then equilibrated for 1.6 minute before the following sample injection. The flow rate was maintained at 600 μL/min throughout the sample analysis.
The mass spectrometer was operated in profile mode at a resolution of 17500, 5 microscans, using 50 msec max injection time and an AGC target of 1×10^6, and a full mass range from 800-1850 m/z was recorded. The HCD trapping gas was optimized for maximum sensitivity for intact proteins. […]

The mark [1] stands for this setting: 8 μM compound (compounds 21-92).
The mark [2] stands for this setting: 10 μM compound (compounds 1-20).

Consider `C=CC(=O)N1CC(N2Cc3ccc(N4CCC(N(C)C)C4)cc3C2=O)C1` (stereo not shown) [Compound 62, 2-(1-acryloylazetidin-3-yl)-6-(3-(dimethylamino)pyrrolidin-1-yl)isoindolin-1-one], for which the Binding % result under setting [1] is on record as “+ (+ indicates binding activity up to 10%)”.

Consider `C=CC(=O)N1CC(N2Cc3ccc(-c4ccc(O)nc4)cc3C2=O)C1` [Compound 90, 2-(1-acryloylazetidin-3-yl)-6-(6-hydroxypyridin-3-yl)isoindolin-1-one], for which the Binding % result under setting [1] is listed as “+ (+ indicates binding activity up to 10%)”.

With `C=CC(=O)N1CC(N2Cc3ccc(-c4c(O)cccc4F)cc3CC2=O)C1` [Compound 41, 2-(1-acryloylazetidin-3-yl)-6-(2-fluoro-6-hydroxyphenyl)-1,2-dihydroisoquinolin-3(4H)-one], the Binding % entry under setting [1] is given as “++ (++ indicates binding activity from 10 to 50%)”.

Consider `C=CC(=O)N1CC(N2Cc3ccc(-c4cc(O)cc(F)c4)cc3C2=O)C1` [Compound 33, 2-(1-acryloylazetidin-3-yl)-6-(3-fluoro-5-hydroxyphenyl)isoindolin-1-one], for which, under setting [1], the Binding % result is given as “+ (+ indicates binding activity up to 10%)”.

For `C=CC(=O)N1CC(N2Cc3ccc(-c4cc(O)cc5ccccc45)cc3CC2=O)C1` [Compound 3, 2-(1-acryloylazetidin-3-yl)-6-(3-hydroxynaphthalen-1-yl)-1,4-dihydroisoquinolin-3(2H)-one], the Binding % entry under setting [2] is given as “+++ (+++ indicates binding activity greater than 50%)”.

In the case of `C=CC(=O)N1CC(N2Cc3ccc(-c4cc(O)cc5ccccc45)cc3C2=O)C1` [Compound 2, 2-(1-acryloylazetidin-3-yl)-6-(3-hydroxynaphthalen-1-yl)isoindolin-1-one], the Binding % entry under setting [2] is on record as “+++ (+++ indicates binding activity greater than 50%)”.

Take `C=CC(=O)N1CC(N2CCc3ccc(-c4c(C)ccc5[nH]ncc45)cc3C2=O)C1` [Compound 36, 2-(1-acryloylazetidin-3-yl)-7-(5-methyl-1H-indazol-4-yl)-3,4-dihydroisoquinolin-1(2H)-one]: under setting [1], the Binding % entry is “+ (+ indicates binding activity up to 10%)”.

As to `C=CC(=O)N1CC(N2Cc3ccc(-c4c(C)ccc5[nH]ncc45)nc3C2=O)C1` [Compound 87, 6-(1-acryloylazetidin-3-yl)-2-(5-methyl-1H-indazol-4-yl)-5,6-dihydro-7H-pyrrolo[3,4-b]pyridin-7-one], the Binding % entry under setting [1] is listed as “+ (+ indicates binding activity up to 10%)”.

With `C=CC(=O)N1CC(N2CCc3ccc(-c4c(C)ccc5[nH]ncc45)cc3CC2)C1` [Compound 37, 1-(3-(7-(5-methyl-1H-indazol-4-yl)-4,5-dihydro-1H-benzo[d]azepin-3(2H)-yl)azetidin-1-yl)prop-2-en-1-one], under setting [1], the Binding % result is “+ (+ indicates binding activity up to 10%)”.

Regarding `C=CC(=O)N1CC(N2Cc3ccc(-c4nc(N)ncc4C)cc3C2=O)C1` [Compound 88, 2-(1-acryloylazetidin-3-yl)-6-(2-amino-5-methylpyrimidin-4-yl)isoindolin-1-one], under setting [1], the Binding % result is given as “+ (+ indicates binding activity up to 10%)”.

Take `C=CC(=O)N1CC(N2Cc3ccc(-c4cn[nH]c4)cc3C2=O)C1` [Compound 66, 2-(1-acryloylazetidin-3-yl)-6-(1H-pyrazol-4-yl)isoindolin-1-one]: the Binding % entry under setting [1] is listed as “+ (+ indicates binding activity up to 10%)”.

Regarding `C=CC(=O)N1CC(N2Cc3ccc(C(=O)N4CCC(N)C4)cc3C2=O)C1` (stereo not shown) [Compound 79, 2-(1-acryloylazetidin-3-yl)-6-(3-aminopyrrolidine-1-carbonyl)isoindolin-1-one], the Binding % result under setting [1] is “+ (+ indicates binding activity up to 10%)”.

With `C=CC(=O)N1CCC(N2Cc3c(C(N)=O)cc(-c4c(C)ccc5[nH]ncc45)cc3C2=O)C1` (stereo not shown) [Compound 85, 2-(1-acryloylpyrrolidin-3-yl)-6-(5-methyl-1H-indazol-4-yl)-1-oxoisoindoline-4-carboxamide], the Binding % result under setting [1] was “+ (+ indicates binding activity up to 10%)”.

For the compound `C=CC(=O)N1CC(N2CCc3ccc(-c4cc(O)cc5ccccc45)cc3CC2)C1` [Compound 31, 1-(3-(7-(3-hydroxynaphthalen-1-yl)-4,5-dihydro-1H-benzo[d]azepin-3(2H)-yl)azetidin-1-yl)prop-2-en-1-one], the Binding % entry under setting [1] is given as “+ (+ indicates binding activity up to 10%)”.

Consider `C=CC(=O)N1CC(N2Cc3c(C#N)cc(-c4c(C)ccc5[nH]ncc45)cc3C2=O)C1` [Compound 89, 2-(1-acryloylazetidin-3-yl)-6-(5-methyl-1H-indazol-4-yl)-1-oxoisoindoline-4-carbonitrile], for which the Binding % entry under setting [1] is given as “+ (+ indicates binding activity up to 10%)”.

As for `C=CC(=O)N1CC(N2Cc3ccc(-c4cccc(C(N)=O)c4)cc3C2=O)C1` [Compound 50, 3-(2-(1-acryloylazetidin-3-yl)-3-oxoisoindolin-5-yl)benzamide], under setting [1], the Binding % entry was “+ (+ indicates binding activity up to 10%)”.

With `C=CC(=O)N1CC(N2Cc3cc(-c4cc(O)cc5ccccc45)ccc3C2=O)C1` [Compound 1, 2-(1-acryloylazetidin-3-yl)-5-(3-hydroxynaphthalen-1-yl)isoindolin-1-one], the Binding % result under setting [2] is “++ (++ indicates binding activity from 10 to 50%)”.

As for `C=CC(=O)N1CC(N2Cc3c(C)cc(-c4cc(O)ccc4Cl)cc3C2=O)C1` [Compound 15, 2-(1-acryloylazetidin-3-yl)-6-(2-chloro-5-hydroxyphenyl)-4-methylisoindolin-1-one], the Binding % result under setting [2] was “++ (++ indicates binding activity from 10 to 50%)”.

Consider `C=CC(=O)N1CC(N2Cc3ccc(N4CCC(O)C4)cc3C2=O)C1` (stereo not shown) [Compound 59, 2-(1-acryloylazetidin-3-yl)-6-(3-hydroxypyrrolidin-1-yl)isoindolin-1-one], for which the Binding % result under setting [1] is listed as “+ (+ indicates binding activity up to 10%)”.

`C=CC(=O)N1CC(N2Cc3cc(Cl)c(-c4c(C)ccc5[nH]ncc45)cc3C2=O)C1` [Compound 74, 2-(1-acryloylazetidin-3-yl)-5-chloro-6-(5-methyl-1H-indazol-4-yl)isoindolin-1-one]: under setting [1], the Binding % entry was “++ (++ indicates binding activity from 10 to 50%)”.

On to `C=CC(=O)N1CC(N2Cc3cc(F)c(-c4cc(O)ccc4Cl)cc3C2=O)C1` [Compound 21, 2-(1-acryloylazetidin-3-yl)-6-(2-chloro-5-hydroxyphenyl)-5-fluoroisoindolin-1-one], for which, under setting [1], the Binding % result is given as “++ (++ indicates binding activity from 10 to 50%)”.

For `C=CC(=O)N1CC(N2Cc3ccc(-c4ccccc4C(N)=O)cc3C2=O)C1` [Compound 47, 2-(2-(1-acryloylazetidin-3-yl)-3-oxoisoindolin-5-yl)benzamide], the Binding % entry under setting [1] is reported as “+ (+ indicates binding activity up to 10%)”.

For the compound `C=CC(=O)N1CC(N2Cc3ccc(-c4cc(O)cc5ccccc45)cc3C2)C1` [Compound 51, 1-(3-(5-(3-hydroxynaphthalen-1-yl)isoindolin-2-yl)azetidin-1-yl)prop-2-en-1-one], the Binding % result under setting [1] is “+ (+ indicates binding activity up to 10%)”.

On to `C=CC(=O)N1CC(N2Cc3ccc(NC4CCCN(C(C)=O)C4)cc3C2=O)C1` (stereo not shown) [Compound 71, 6-((1-acetylpiperidin-3-yl)amino)-2-(1-acryloylazetidin-3-yl)isoindolin-1-one], for which the Binding % result under setting [1] is “+ (+ indicates binding activity up to 10%)”.

Turning to `C=CC(=O)N1CC(N2Cc3sc(-c4cc(O)cc5ccccc45)cc3C2=O)C1` [Compound 34, 5-(1-acryloylazetidin-3-yl)-2-(3-hydroxynaphthalen-1-yl)-5,6-dihydro-4H-thieno[2,3-c]pyrrol-4-one], the Binding % result under setting [1] was “+++ (+++ indicates binding activity greater than 50%)”.

Source of the values: US10377743B2, “Inhibitors of RAS and methods of use thereof” (Araxes Pharma LLC, priority 2016, dated 2019).
